ED50 and LD50 data for 24 compounds are collected here from US4275071A, “Imidazole derivatives” (Recordati S.A., priority 1978, dated 1981).

The term ED50 denotes the midpoint of the dose-response relation. As a reminder, the LD50 is the dose at which mortality reaches 50%. Low values mean greater toxicity, high ones lower toxicity.

Read-outs that look alike come from different tables or passages of the source.

The subject of series [1] is maximum electroshock seizure in mice. The series can be described thus: Maximum electroshock seizure test (MES) in the mouse. It is filed as in vivo, mouse (albino race). The conditions noted are these: read-out: ED50 - MES.
For series [2], the system named is pentylenetetrazol (Metrazol) seizure in mice. The series can be described thus: Subcutaneous pentylenetetrazol (Metrazol) seizure threshold test (MET) in the mouse. It is filed as in vivo. The conditions noted are these: 1 h, read-out: ED50 - MET.
Series [3] is described as follows: in vivo. The conditions noted are these: mouse, in vivo. From the text: (§1) As to MET, it is known that pentylene-tetrazol (metrazol) administered subcutaneously to mice in a loose fold of skin on the back of the neck, produces seizures. […] Failure to observe even a threshold seizure is defined as protection. In the same table the LD50 values (lethal dose 50), evaluated in the mouse both I.p. and per os, are given.

The test system of series [4] is mouse. The series can be described thus: in vivo. The conditions noted are these: i.p.
Text: as §1

[5] abbreviates: ip, mouse, i.p., electroshock 60 Hz, 0.2 sec, 25 mA, 30 or 60 minutes after administration.
The mark [6] stands for this setting: po, mouse, os, electroshock 60 Hz, 0.2 sec, 25 mA, 30 or 60 minutes after administration.
Where [7] appears, read: ip, mouse, i.p., pentylenetetrazol 130 mg/Kg s.c. 30 minutes after administration, observed 60 minutes.
The mark [8] stands for this setting: po, mouse, os, pentylenetetrazol 130 mg/Kg s.c. 60 minutes after administration, observed 60 minutes.

For `OC(Cn1ccnc1)c1ccc(CCc2ccccc2)cc1` (stereo not drawn) [15/1533, 4-[1"-hydroxy-2"-(N-imidazolyl)-ethyl]-bibenzyl], the ED50 in series [1] (setting [5]) was found to be 10 mg/kg; in series [1] (setting [6]), 12 mg/kg; in series [2] (Mus musculus, ip), 9 mg/kg; in series [2] (Mus musculus, po), 10 mg/kg.

With `O=C(Cn1ccnc1)c1ccc(C2CCCCC2)cc1` [15/1803], the ED50 came out at 66 mg/kg in series [1] (Mus musculus, ip); 92 mg/kg in series [1] (Mus musculus, po); 18 mg/kg in series [2] (Mus musculus, ip); 32 mg/kg in series [2] (Mus musculus, po).

As to `Cc1cc(C)c(C)c(C(=O)Cn2ccnc2)c1C` [Compound 1323, 3-(N-imidazolyl-acetyl)-durene], the ED50 in series [1] (Mus musculus, ip) amounted to 18 mg/kg; in series [1] (Mus musculus, po) it was 33 mg/kg; in series [2] (Mus musculus, ip), 19 mg/kg; in series [2] (Mus musculus, po), 28 mg/kg. For the same compound, the LD50 came to 420 mg/kg in series [3] (ip) and 1.17 mg/kg in series [3] (po).

With `O=C(Cn1ccnc1)c1ccc(-c2ccccc2)cc1` [Compound 1341, 4-(N-imidazolyl-acetyl)-biphenyl], the ED50 in series [1] (Mus musculus, ip) was 54 mg/kg; in series [1] (Mus musculus, po), 76 mg/kg; in series [2] (Mus musculus, ip), 28 mg/kg; in series [2] (Mus musculus, po) it was 10 mg/kg.

Turning to `OC(Cn1ccnc1)c1ccc(-c2ccccc2)cc1` (stereo not drawn) [Compound 1342, 4-[1"-hydroxy-2"-(N-imidazolyl)-ethyl]-biphenyl], the ED50 in series [1] (Mus musculus, ip) amounted to 25 mg/kg; in series [1] (Mus musculus, po), 25 mg/kg; in series [2] (Mus musculus, ip) it was 25 mg/kg; in series [2] (Mus musculus, po), 20 mg/kg. The LD50 in series [3] (ip) stood at 1.15 mg/kg.

Regarding `Cc1c(C)c([N+](=O)[O-])c(C)c(C)c1C(=O)Cn1ccnc1` [Compound 1429, 3-(N-imidazolyl-acetyl)-6-nitro-durene], the ED50 in series [1] (setting [5]) was determined as 75 mg/kg; in series [1] (setting [6]) it was 54 mg/kg; in series [2] (Mus musculus, ip) it was 100 mg/kg; in series [2] (Mus musculus, po) it was 52 mg/kg.

Take `CC(C)CCSc1ccc(C(O)Cn2ccnc2)cc1` (stereo not drawn) [Compound 1455]: the ED50 in series [1] (setting [5]) was 15 mg/kg; in series [1] (setting [6]), 31 mg/kg; in series [2] (Mus musculus, ip), 19 mg/kg; in series [2] (Mus musculus, po), 22 mg/kg. For the same compound, the LD50 in series [3] (ip) was found to be 420 mg/kg.

Regarding `Cc1c(C)c(C(=O)Cn2ccnc2)c(C)c(C)c1Br` [Compound 1457, 3-(N-imidazolyl-acetyl)-6-bromo-durene], the ED50 in series [1] (Mus musculus, ip) amounted to 180 mg/kg; in series [1] (Mus musculus, po), 190 mg/kg; in series [2] (Mus musculus, ip) it was 90 mg/kg; in series [2] (Mus musculus, po), 57 mg/kg.

With `CC(C)(C(=O)c1ccc(-c2ccccc2)cc1)n1ccnc1` [Compound 1488, 4-[2"-methyl-2"-(N-imidazolyl)-propionyl]-biphenyl], the ED50 in series [1] (Mus musculus, ip) was found to be 30 mg/kg; in series [1] (Mus musculus, po), 34 mg/kg; in series [2] (Mus musculus, ip), 25 mg/kg; in series [2] (Mus musculus, po) it was 37 mg/kg. The compound further had an LD50 in series [3] (po) of 1.87 mg/kg.

As for `O=C(CCn1ccnc1)c1ccc(-c2ccccc2)cc1` [Compound 1490, 4-[3"-(N-imidazolyl)-propionyl]-biphenyl], the ED50 was found to be 60 mg/kg in series [1] (Mus musculus, ip); 36 mg/kg in series [1] (Mus musculus, po); 15 mg/kg in series [2] (Mus musculus, ip); 30 mg/kg in series [2] (Mus musculus, po). Further, the LD50 in series [4] came to 360 mg/kg.

As to `CC(C)(C(O)c1ccc(-c2ccccc2)cc1)n1ccnc1` (stereo not drawn) [Compound 1492], the 50% effective dose (ED50) was 24 mg/kg in series [1] (setting [5]), 27 mg/kg in series [1] (setting [6]), 10 mg/kg in series [2] (setting [7]) and 14 mg/kg in series [2] (setting [8]). Moreover, the LD50 in series [3] (ip) turned out to be 420 mg/kg; in series [3] (po), 2400 mg/kg.

In the case of `Cc1c(C)c(C(O)Cn2ccnc2)c(C)c(C)c1Cl` (stereo not drawn) [Compound 1515, 3-[1'-hydroxy-2'-(N-imidazolyl)-ethyl]-6-chloro-durene], the ED50 was 300 mg/kg in series [1] (setting [5]); 150 mg/kg in series [1] (setting [6]); 150 mg/kg in series [2] (Mus musculus, ip); 75 mg/kg in series [2] (Mus musculus, po).

`Cc1c(C)c(C)c(C(O)Cn2ccnc2)c(C)c1C` (stereo not drawn) [Compound 1516, 3-[1'-hydroxy-2'-(N-imidazolyl)-ethyl]-6-methyl-durene]: the 50% effective dose (ED50) in series [1] (setting [5]) was 46 mg/kg; in series [1] (setting [6]), 57 mg/kg; in series [2] (setting [7]), 13 mg/kg; in series [2] (setting [8]) it was 35 mg/kg. Also, the LD50 in series [3] (ip) was 655 mg/kg; in series [3] (po), 1800 mg/kg.

Regarding `Cc1c(C)c(C(=O)Cn2ccnc2)c(C)c(C)c1Cl` [Compound 1517, 3-(N-imidazolyl-acetyl)-6-chloro-durene], the ED50 was 80 mg/kg in series [1] (setting [5]); 80 mg/kg in series [1] (setting [6]); 150 mg/kg in series [2] (Mus musculus, ip); 150 mg/kg in series [2] (Mus musculus, po).

Regarding `Cc1c(C)c(C)c(C(=O)Cn2ccnc2)c(C)c1C` [Compound 1518, 3-(N-imidazolyl-acetyl)-6-methyl-durene], the ED50 in series [1] (setting [5]) worked out at 13 mg/kg; in series [1] (setting [6]), 45 mg/kg; in series [2] (Mus musculus, ip), 23 mg/kg; in series [2] (Mus musculus, po), 50 mg/kg. This compound also had an LD50 in series [3] (po) of 1800 mg/kg.

Turning to `O=C(Cn1ccnc1)c1ccc(CCc2ccccc2)cc1` [Compound 1532, 4-(N-imidazolyl-acetyl)-bibenzyl], the ED50 in series [1] (Mus musculus, ip) came to 11 mg/kg; in series [1] (Mus musculus, po), 37 mg/kg; in series [2] (Mus musculus, ip), 11 mg/kg; in series [2] (Mus musculus, po), 17 mg/kg. For the same compound, the LD50 is 1.55 mg/kg in series [3] (po) and 300 mg/kg in series [4].

Take `OC(Cn1ccnc1)c1ccc(C2CCCCC2)cc1` (stereo not drawn) [Compound 1534, 1-[1'-hydroxy-2'-(N-imidazolyl)-ethyl]-4-cyclohexyl-benzene]: the ED50 is 50 mg/kg in series [1] (setting [5]), 60 mg/kg in series [1] (setting [6]), 25 mg/kg in series [2] (setting [7]) and 27 mg/kg in series [2] (setting [8]). The LD50 in series [3] (ip) was 490 mg/kg; in series [3] (po), 2700 mg/kg.

Regarding `CC(C(O)c1ccc(Sc2ccccc2)cc1)n1ccnc1` (stereo not drawn) [Compound 1540], the ED50 in series [1] (Mus musculus, ip) was 155 mg/kg; in series [1] (Mus musculus, po) it was 150 mg/kg; in series [2] (Mus musculus, ip), 39 mg/kg; in series [2] (Mus musculus, po), 150 mg/kg.

On to `CC(C)(C(O)c1ccc(Sc2ccccc2)cc1)n1ccnc1` (stereo not drawn) [Compound 1541], for which the ED50 in series [1] (Mus musculus, ip) amounted to 50 mg/kg; in series [1] (Mus musculus, po) it was 190 mg/kg; in series [2] (Mus musculus, ip), 23 mg/kg; in series [2] (Mus musculus, po), 135 mg/kg.

Turning to `O=C(OC(Cn1ccnc1)c1ccc(-c2ccccc2)cc1)c1ccccc1` (stereo not drawn) [Compound 1575, 4-[1"-benzoyloxy-2"-(N-imidazolyl)-ethyl]-biphenyl], the ED50 in series [1] (setting [5]) was 66 mg/kg; in series [1] (setting [6]), 135 mg/kg; in series [2] (Mus musculus, ip), 27 mg/kg; in series [2] (Mus musculus, po), 62 mg/kg. Further, the LD50 in series [3] (po) was 1300 mg/kg.

As to `O=C(CCn1ccnc1)c1ccc(CCc2ccccc2)cc1` [Compound 1585], the median effective dose (ED50) is 25 mg/kg in series [1] (Mus musculus, ip); 100 mg/kg in series [1] (Mus musculus, po); 25 mg/kg in series [2] (Mus musculus, ip); 25 mg/kg in series [2] (Mus musculus, po).

For the compound `C(=Cn1ccnc1)c1ccc(-c2ccccc2)cc1` [Compound 1598, 4-(N-imidazolyl-vinylene)-biphenyl], the ED50 worked out at 185 mg/kg in series [1] (Mus musculus, ip); 145 mg/kg in series [1] (Mus musculus, po); 69 mg/kg in series [2] (Mus musculus, ip); 80 mg/kg in series [2] (Mus musculus, po).

Take `O=C1NC(=O)C(c2ccccc2)(c2ccccc2)N1` [Diphenylidantoin, diphenylidantoin, reference compound]: the ED50 in series [1] (setting [5]) was 6 mg/kg; in series [1] (setting [6]), 10 mg/kg; in series [2] (setting [7]), 6 mg/kg; in series [2] (setting [8]) it was 5 mg/kg.

In the case of `CCC1(c2ccccc2)C(=O)NC(=O)NC1=O` [Phenobarbital, phenobarbital, reference compound], the ED50 in series [1] (Mus musculus, ip) amounted to 14 mg/kg; in series [1] (Mus musculus, po), 18 mg/kg; in series [2] (Mus musculus, ip), 9 mg/kg; in series [2] (Mus musculus, po), 10 mg/kg. The LD50 was determined as 242 mg/kg in series [3] (ip) and 245 mg/kg in series [3] (po).
